Values of other authors as cited in patent publication US20130177904A1, “ARNT ISOFORM 3 AS A PREDICTOR OF AMINOFLAVONE RESPONSIVENESS IN CANCER CELLS” (UNIVERSITY OF MARYLAND, BALTIMORE, priority 2010, published 2013).

System: nonspecific plasma esterases
Details: by nonspecific plasma esterases; cited from earlier work

CS(=O)(=O)O.Cc1c(F)c(N)c2c(=O)cc(-c3ccc(NC(=O)[C@@H](N)CCCCN)c(F)c3)oc2c1F [AFP-464]
conversion to AF in plasma: rapid conversion to AF
